The values that follow come from patent US9708328B2, “Pteridines useful as HCV inhibitors and methods for the preparation thereof” (Janssen Sciences Ireland UC, priority 2005, dated 2017).

SMILES strings stand for the structures. Read-outs that look alike come from different tables or passages of the source.

For data set [1], the system named is HCV replicon (HCV type 1b) in Huh-7 luc/neo cells. In words: Stable replicon cell reporter assay (Huh-Luc, luciferase readout). It is filed as cell-based. As to conditions: Hepatitis C virus, Huh-7, 72 h, three days incubation, luciferase activity. The text has this: Stable Replicon Cell Reporter Assays:
The compounds of the present invention are examined for activity in the inhibition of HCV RNA replication in a cellular assay. […] The cellular assay is based on a bicistronic expression construct, as described by Lohmann et al. (1999) Science vol. 285 pp. 110-113 with modifications described by Krieger et al. (2001) Journal of Virology 75: 4614-4624, in a multi-target screening strategy. In essence, the method is as follows.
The assay utilizes the stably transfected cell line Huh-7 luc/neo (hereafter referred to as Huh-Luc). This cell line harbors an RNA encoding a bicistronic expression construct comprising the wild type NS3-NS5B regions of HCV type 1b translated from an Internal Ribosome Entry Site (IRES) from encephalomyocarditis virus (EMCV), preceded by a reporter portion (FfL-luciferase), and a selectable marker portion (neo^R, neomycine phosphotransferase). The construct is bordered by 5′ and 3′ NTRs (non-translated regions) from HCV type 1b. Continued culture of the replicon cells in the presence of G418 (neo^R) is dependent on the replication of the HCV RNA. The stably transfected replicon cells that express HCV RNA, which replicates autonomously and to high levels, encoding inter alia luciferase, are used for screening the antiviral compounds.
Cellular Assay Experimental Method:
The replicon cells are plated in 384 well plates in the presence of the test and control compounds which are added in various concentrations. Following an incubation of three days, HCV replication is measured by assaying luciferase activity (using standard luciferase assay substrates and reagents and a Perkin Elmer ViewLux™ ultraHTS microplate imager). Replicon cells in the control cultures have high luciferase expression in the absence of any inhibitor. The inhibitory activity of the compound on luciferase activity is monitored on the Huh-Luc cells, enabling a dose-response curve for each test compound.
Background: In antiviral work, replicon cells carry a viral genome segment that copies itself.

The nature of data set [2]: Pharmacokinetic profile after single oral administration: plasma, heart and liver levels. Format: in vivo, male Swiss SPF (CD1)-mice. The procedure:
Compound nr. 21 was dissolved in a 10% hydroxypropyl-β-cyclodextrin (HP-β-CD) solution at a final concentration of 1 mg base-eq./ml, .pH 4.36.
Three animals were administered orally the solution of compound nr. 21 to obtain a dose of 20 mg base-eq./kg. Blood samples were taken at 30 min, 1, 2, 4, 8 and 24 h after oral dose administration. Plasma was obtained following centrifugation at 4° C. for 10 minutes at approximately 1900×g.
From each orally dosed animal individual samples of heart and liver were dissected and weighed. Tissue samples were homogenized in demineralized water.
Plasma and tissue samples were analysed for compound nr. 21, using a qualified research LC-MS/MS method.
A limited pharmacokinetic analysis was performed using WinNonlin™ Professional (Version 4.0.1). A non-compartmental analysis using the lin/log trapezoidal rule with lin/log interpolation was used for all data. The variability between animals is indicated by the standard deviation (st dev).

For the molecule `Fc1ccc(Br)cc1-c1nc(Nc2ccccc2)c2nccnc2n1` [Compound 8, 2-(5-bromo-2-fluorophenyl)-4-(phenylamino)pteridine], the 50% effective concentration (EC50) – broadly, the concentration giving half of the maximal effect – in data set [1] is over 32000 nM.

Molecule `Cc1cnccc1Nc1nc(-c2cc(Br)ccc2F)nc2nccnc12` [Compound 7, 2-(5-bromo-2-fluorophenyl)-4-(3-methyl-4-pyridylamino)pteridine] came in with an EC50 in data set [1] of 950 nM.

`Fc1ccc(Br)cc1-c1nc(Nc2ccncc2)c2nccnc2n1` [Compound 1, 2-(5-bromo-2-fluorophenyl)-4-(4-pyridylamino)pteridine] displayed an EC50 in data set [1] of 352 nM.

With `Cc1ccccc1Nc1nc(-c2cc(Br)ccc2F)nc2nccnc12` [Compound 9, 2-(5-bromo-2-fluorophenyl)-4-(2-tolylamino)pteridine], in data set [1], the EC50 was found to be 11000 nM.

As for `Cc1cccc(-c2nc(Nc3ccncc3C)c3nccnc3n2)n1` [Compound 19, 2-(2-methyl-6-pyridyl)-4-[(3-methyl-4-pyridyl)amino]pteridine], in data set [1], the midpoint of the response, the EC50, lay at 12000 nM.

As for `CCc1cnccc1Nc1nc(-c2cc(Cl)ccc2F)nc2nccnc12` [Compound 23, 2-(5-chloro-2-fluorophenyl)-4-(3-ethyl-4-pyridylamino)pteridine], the EC50 in data set [1] is 520 nM.

Consider `CCCCN(c1ccncc1)c1nc(-c2cc(Br)ccc2F)nc2nccnc12` [Compound 3, 4-[(butyl)(4-pyridyl)amino]-2-(5-bromo-2-fluorophenyl)pteridine], for which, in data set [1], the EC50 amounted to 2200 nM.

Regarding `Fc1ccc(Br)cc1-c1nc(N2CCN(c3ccccn3)CC2)c2nccnc2n1` [Compound 12, 2-(5-bromo-2-fluorophenyl)-4-[4-(2-pyridyl)piperazin-1-yl]pteridine], in data set [1], the EC50 was over 32000 nM.

The molecule `Clc1cccc(-c2nc(Nc3ccncc3)c3nccnc3n2)c1` [Compound 18, 2-(3-chlorophenyl)-4-(4-pyridylamino)pteridine] registered an EC50 in data set [1] of 1500 nM.

Turning to `O=C(NCCCN1CCCC1=O)c1cnccc1Nc1nc(-c2cc(Br)ccc2F)nc2nccnc12` [Compound 21, 4-[[2-(5-bromo-2-fluorophenyl)pteridin-4-yl]amino]-N-[3-(2-oxopyrrolidin-1-yl)propyl]nicotinamide], the EC50 in data set [1] came out at 58 nM. For the same molecule, the AUC0-inf stood at 1262 ng·h/mL in data set [2] (heart, 20 mg base-eq./kg oral); 7973 ng·h/mL in data set [2] (liver, 20 mg base-eq./kg oral); 332 ng·h/mL in data set [2] (plasma, 20 mg base-eq./kg oral). The “AUC(0-8 h)” value in data set [2] (heart, 20 mg base-eq./kg oral) was found to be 1119 ng·h/mL; in data set [2] (liver, 20 mg base-eq./kg oral), 6965 ng·h/mL; in data set [2] (plasma, 20 mg base-eq./kg oral), 309 ng·h/mL. For the same molecule, the Tmax (commonly the time at which the peak concentration occurs) was 0.5 h in data set [2] (heart, 20 mg base-eq./kg oral); 0.5 h in data set [2] (liver, 20 mg base-eq./kg oral); 0.5 h in data set [2] (plasma, 20 mg base-eq./kg oral). In addition, the “t1/2 (2-8 h)” value in data set [2] (heart, 20 mg base-eq./kg oral) was determined as 3.4 h; in data set [2] (liver, 20 mg base-eq./kg oral), 3.5 h; in data set [2] (plasma, 20 mg base-eq./kg oral), 2.9 h. In addition, the Cmax was 678 ng/mL in data set [2] (heart, 20 mg base-eq./kg oral (Table 4)); 4057 ng/mL in data set [2] (liver, 20 mg base-eq./kg oral (Table 4)); 678 ng/g in data set [2] (male, Swiss SPF (CD1), mouse, 20 mg/kg, heart, 0.5 h post dose, 20 mg base-eq./kg oral, read-out: Mean maximum tissue concentration (Cmax)); 4060 ng/g in data set [2] (male, Swiss SPF (CD1), mouse, 20 mg/kg, liver, 0.5 h post dose, 20 mg base-eq./kg oral, read-out: Mean maximum tissue concentration (Cmax)); 220 ng/mL in data set [2] (plasma, 20 mg base-eq./kg oral). Moreover, the “Mean tissue level, heart” value in data set [2] (heart, time 24 h, 20 mg base-eq./kg oral, n=3, LLOQ between 5.00 and 13.16 ng/g) is reported as “BQL^1)”. Besides, in data set [2] (liver, time 24 h, 20 mg base-eq./kg oral, n=3, LLOQ between 5.00 and 13.16 ng/g), the “Mean tissue level, liver” value is given as “BQL^1)”. In addition, the concentration at 0.5 h in data set [2] (male, Swiss SPF (CD1), mouse, plasma, time 0.5 h, 20 mg base-eq./kg oral, n=3, read-out: Mean plasma level) was 220 ng/mL. Also, the concentration at 1 h in data set [2] (male, Swiss SPF (CD1), mouse, plasma, time 1 h, 20 mg base-eq./kg oral, n=3, read-out: Mean plasma level) turned out to be 166 ng/mL. In data set [2] (male, Swiss SPF (CD1), mouse, plasma, time 2 h, 20 mg base-eq./kg oral, n=3, read-out: Mean plasma level), the concentration at 2 h was determined as 21.7 ng/mL. Also, the concentration at 4 h in data set [2] (male, Swiss SPF (CD1), mouse, plasma, time 4 h, 20 mg base-eq./kg oral, n=3, read-out: Mean plasma level) stood at 20.3 ng/mL. The concentration at 8 h in data set [2] (male, Swiss SPF (CD1), mouse, plasma, time 8 h, 20 mg base-eq./kg oral, n=3, read-out: Mean plasma level) was 5.52 ng/mL. The Mean plasma level entry in data set [2] (plasma, time 24 h, 20 mg base-eq./kg oral, n=3, LLOQ 0.500 ng/ml) is listed as “BQL^1)”.

`Fc1ccc(Br)cc1-c1nc(Nc2ccc(N3CCOCC3)cc2)c2nccnc2n1` [Compound 14, 2-(5-bromo-2-fluorophenyl)-4-(4-morpholinophenylamino)pteridine] had an EC50 in data set [1] of 8700 nM.

In data set [1], `Cc1cnccc1Nc1nc(-c2cc(Cl)ccc2F)nc2nccnc12` [Compound 25, 2-(5-chloro-2-fluorophenyl)-4-(3-methyl-4-pyridylamino)pteridine] had an EC50 of 480 nM.

In data set [1], `CC(C)(C)CCN(c1ccncc1)c1nc(-c2cc(Br)ccc2F)nc2nccnc12` [Compound 4, 2-(5-bromo-2-fluorophenyl)-4-[(3,3-dimethylbutyl)(4-pyridyl)amino]pteridine] gave an EC50 of 480 nM.

For `CN(c1ccncc1)c1nc(-c2cc(Br)ccc2F)nc2nccnc12` [Compound 2, 2-(5-bromo-2-fluorophenyl)-4-[(methyl)(4-pyridyl)amino]pteridine], the EC50 in data set [1] is 3650 nM.

`COC(=O)c1cnccc1Nc1nc(-c2cc(Br)ccc2F)nc2nccnc12` [Compound 13, 4-[[2-(5-Bromo-2-fluorophenyl)pteridin-4-yl]amino]nicotinic acid methyl ester] had an EC50 in data set [1] of 4900 nM.

In turn, `Cc1cc(Nc2nc(-c3cc(Br)ccc3F)nc3nccnc23)ccn1` [Compound 15, 2-(5-bromo-2-fluorophenyl)-4-(2-methyl-4-pyridylamino)pteridine] showed an EC50 in data set [1] of 3560 nM.

In data set [1], `Fc1ccc(Br)cc1-c1nc(N(Cc2ccccc2)c2ccncc2)c2nccnc2n1` [Compound 5, 4-[(benzyl)(4-pyridyl)amino]-2-(5-bromo-2-fluorophenyl)pteridine] registered an EC50 of 990 nM.

As for `Fc1ccc(Cl)cc1-c1nc(Nc2ccncc2)c2nccnc2n1` [Compound 24, 2-(5-chloro-2-fluorophenyl)-4-(4-pyridylamino)pteridine], it took 780 nM to reach a half-maximal effect in data set [1] (EC50).

The molecule `Fc1cccc(-c2nc(Nc3ccncc3)c3nccnc3n2)c1` [Compound 27, 2-(3-fluorophenyl)-4-(4-pyridylamino)pteridine] gave a 50% effective concentration (EC50) in data set [1] of 3000 nM.

In data set [1], `FC(F)(F)c1cccc(-c2nc(Nc3ccncc3)c3nccnc3n2)c1` [Compound 26, 2-(3-trifluoromethylphenyl)-4-(4-pyridylamino)pteridine] displayed an EC50 of 2000 nM.

`Fc1ccc(Br)cc1-c1nc(N(CCc2ccccc2)c2ccncc2)c2nccnc2n1` [Compound 22, 2-(5-bromo-2-fluorophenyl)-4-[(phenethyl)(4-pyridyl)amino]-pteridine] registered an EC50 in data set [1] of 1960 nM.

In data set [1], `OCCNc1nc(-c2cc(Br)ccc2F)nc2nccnc12` [Compound 11, 2-(5-bromo-2-fluorophenyl)-4-(2-hydroxyethylamino)pteridine] displayed an EC50 of over 32000 nM.

The molecule `CN(c1ccccc1)c1nc(-c2cc(Br)ccc2F)nc2nccnc12` [Compound 10, 2-(5-bromo-2-fluorophenyl)-4-[(methyl)(phenyl)amino]pteridine] yielded an EC50 in data set [1] of 11000 nM.

Molecule `Cc1cnccc1Nc1nc(-c2cc(Br)ccc2N2CCCC2)nc2nccnc12` [Compound 6, 2-(5-Bromo-2-pyrrolidin-1-ylphenyl)-4-(3-methyl-4-pyridylamino)pteridine] had a concentration for a half-maximal effect (EC50) in data set [1] of 18000 nM.
